What all share (type): in vivo
Data set [1] deals with Zea mays. The experiment in a line: Comparative post-emergence crop plant compatibility (with Mero and AMS). The text has this: (§1) Seeds of mono- or dicotyledonous weed plants were sown in pots (diameter 7 cm) with sandy loam soil, germinated under optimium growth conditions and cultivated for 21 days.
(§2) The compounds, formulated in the form of wettable powders (WP) or as emulsion concentrates (EC), were sprayed onto the green parts of the plants as aqueous suspension or emulsion with addition of 1.5 l/ha Mero and 2 kg/ha AMS at a water application rate of 300 l/ha (converted).
(§3) After the test plants had been kept in the greenhouse under optimum growth conditions for 21 days, the activity of the preparations was rated visually in comparison to untreated control plants.
(§4) For example, 100% action=the plants have died and
(§5) 0% action=like control plants.
(§6) Tables C4 and C5 below show the effects of a compound according to the invention (114-442) and a compound from WO2019/101551 (No. 16) on various crop plants and at an application rate corresponding to 6 g/ha and less, which were obtained by the experimental procedure mentioned above.

Data set [2] concerns Glycine max. The description is as above.
From the text: as §1, §2, §3, §4, §5, §6

For data set [3], the system named is Solanum nigrum. Put plainly: Comparative post-emergence herbicidal action (with Mero and AMS). The conditions noted are these: with 1.5 l/ha Mero and 2 kg/ha AMS, rated after 21 days.
From the text: as §1, §2, §3, §4, §5
(§7) Tables C1-C3 below show the effects of a compound according to the invention (I.14-442) and a structurally related compound from WO2019/101551 (No. 16) on various harmful plants and at an application rate corresponding to 18 g/ha and less, which were obtained by the experimental procedure mentioned above.

Data set [4] has as its system Xanthium strumarium. The description is as above. The conditions noted are these: with 1.5 l/ha Mero and 2 kg/ha AMS, rated after 21 days.
From the text: as §1, §2, §3, §4, §5, §7

The test system of data set [5] is Polygonum convolvulus. Described as above. The following applies: with 1.5 l/ha Mero and 2 kg/ha AMS, rated after 21 days.
From the text: as §1, §2, §3, §4, §5, §7

Data set [6] deals with Zea mays. The experiment in a line: Post-emergence crop plant compatibility. The conditions noted are these: application rate 1.25 g/ha. In short, it runs like this: (§8)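 Greenhouse plants in sandy loam were sprayed at the one-leaf stage, 2–3 weeks after sowing, with WP or EC formulations in water plus 0.5% additive at […]. Damage was rated visually after about 3 weeks as % versus untreated controls, where 100% means dead plants and 0% means like controls.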

Data set [7] deals with Oryza sativa. The experiment in a line: Post-emergence crop plant compatibility. In short, it runs like this: as §8
Data set [8] relates to Triticum aestivum. The experiment in a line: Post-emergence crop plant compatibility. The conditions noted are these: application rate 1.25 g/ha. In short, it runs like this: as §8
Data set [9] deals with Lolium rigidum. The experiment in a line: Post-emergence herbicidal action. The conditions noted are these: application rate 20 g/ha. In short, it runs like this: (§9)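 Plants grown from seed in sandy loam in the greenhouse were sprayed at the one-leaf stage, 2 to 3 weeks after sowing, with WP or EC formulations in water plus 0.5% additive at 20 g/ha or less. Activity was rated visually after about 3 weeks against untreated controls (100% = plants died, 0% = like control).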

The test system of data set [10] is Abutilon theophrasti. The experiment in a line: Post-emergence herbicidal action. The following applies: Abutilon theophrasti, 504 h, read-out: Abutilon theophrasti (efficacy in %); for pest or weed control at 5 g/ha: application rate 5 g/ha; for pest or weed control at 20 g/ha: application rate 20 g/ha. In a few lines:
as §9

Data set [11] relates to Setaria viridis. The experiment in a line: Post-emergence herbicidal action. The following applies: 504 h, read-out: Setaria viridis (efficacy in %); for pest or weed control at 5 g/ha: application rate 5 g/ha; for pest or weed control at 20 g/ha: application rate 20 g/ha. In a few lines: as §9
The test system of data set [12] is Echinochloa crus-galli. Put plainly: Post-emergence herbicidal action. The following applies: Echinochloa crus-galli, 504 h, read-out: Echinochloa crus-galli (efficacy in %); for pest or weed control at 5 g/ha: application rate 5 g/ha; for pest or weed control at 20 g/ha: application rate 20 g/ha. In short, it runs like this: as §9
The subject of data set [13] is Digitaria sanguinalis. Put plainly: Post-emergence herbicidal action. The following applies: 504 h, read-out: Digitaria sanguinalis (efficacy in %); for pest or weed control at 5 g/ha: application rate 5 g/ha; for pest or weed control at 20 g/ha: application rate 20 g/ha. In a few lines:
as §9

Data set [14] deals with Matricaria inodora. The experiment in a line: Post-emergence herbicidal action. The conditions noted are these: Tripleurospermum inodorum, 504 h, read-out: Matricaria inodora (efficacy in %); for pest or weed control at 5 g/ha: application rate 5 g/ha; for pest or weed control at 20 g/ha: application rate 20 g/ha. In short, it runs like this:
as §9

In data set [15] the test system is Polygonum convolvulus. Put plainly: Post-emergence herbicidal action. The conditions noted are these: Fallopia convolvulus, 504 h, read-out: Polygonum convolvulus (efficacy in %); for pest or weed control at 5 g/ha: application rate 5 g/ha; for pest or weed control at 20 g/ha: application rate 20 g/ha. In a few lines:
as §9

In data set [16] the test system is Viola tricolor. Put plainly: Post-emergence herbicidal action. The following applies: Viola tricolor, 504 h, read-out: Viola tricolor (efficacy in %); for pest or weed control at 5 g/ha: application rate 5 g/ha; for pest or weed control at 20 g/ha: application rate 20 g/ha. In a few lines:
as §9

The test system of data set [17] is Avena fatua. Put plainly: Post-emergence herbicidal action. The conditions noted are these: application rate 20 g/ha. In a few lines:
as §9

The subject of data set [18] is Veronica persica. Put plainly: Post-emergence herbicidal action. The following applies: Veronica persica, 504 h, read-out: Veronica persica (efficacy in %); for pest or weed control at 5 g/ha: application rate 5 g/ha; for pest or weed control at 20 g/ha: application rate 20 g/ha. In a few lines: as §9
For data set [19], the system named is Pharbitis purpurea. The experiment in a line: Post-emergence herbicidal action. The following applies: Ipomoea purpurea, 504 h, read-out: Pharbitis purpurea (efficacy in %); for pest or weed control at 5 g/ha: application rate 5 g/ha; for pest or weed control at 20 g/ha: application rate 20 g/ha. In a few lines:
as §9

Data set [20] concerns Alopecurus myosuroides. The experiment in a line: Post-emergence herbicidal action. The following applies: application rate 20 g/ha. In a few lines:
as §9

Data set [21] relates to Amaranthus retroflexus. Put plainly: Post-emergence herbicidal action. The conditions noted are these: Amaranthus retroflexus, 504 h, read-out: Amaranthus retroflexus (efficacy in %); for pest or weed control at 5 g/ha: application rate 5 g/ha; for pest or weed control at 20 g/ha: application rate 20 g/ha. In a few lines: as §9
Data set [22] relates to Glycine max. Put plainly: Post-emergence crop plant compatibility. The following applies: application rate 5 g/ha. In short, it runs like this:
as §8

Data set [23] deals with Hordeum murinum. Put plainly: Post-emergence herbicidal action. In short, it runs like this: as §9
The test system of data set [24] is Stellaria media. Put plainly: Post-emergence herbicidal action. The following applies: application rate 5 g/ha. In a few lines: as §9

On to `CCOC(=O)COc1ncccc1Oc1cc(-n2c(=O)c(C)c(C(F)(F)F)n(C)c2=O)c(F)cc1Cl` [No. 16], for which the “Zea mays (efficacy in %)” value in [1] (application rate 2 g/ha) amounted to 40%; in data set [1] (application rate 6 g/ha), 50%. Also, the “Glycine max (efficacy in %)” value in data set [2] (application rate 2 g/ha) stood at 40%; in [2] (application rate 6 g/ha), 50%. The “Solanum nigrum (efficacy in %)” value in data set [3] (application rate 6 g/ha) and in data set [3] (application rate 18 g/ha) was 80% in each case. The results for the “Xanthium strumarium (efficacy in %)” value in [4] (application rate 6 g/ha) and in data set [4] (application rate 18 g/ha) were 50% and 85%, respectively. The “Polygonum convolvulus (efficacy in %)” value in [5] (application rate 6 g/ha) was determined as 65%; in data set [5] (application rate 18 g/ha), 75%.

`COCCOCCOC(=O)COc1ncccc1Sc1cc(-n2c(=O)cc(C(F)(F)F)n(N)c2=O)c(F)cc1Cl` [I.1-23, 2-(2-Methoxyethoxy)ethyl {[3-({5-[3-amino-2,6-dioxo-4-(trifluoromethyl)-3,6-dihydropyrimidin-1(2H)-yl]-2-chloro-4-fluorophenyl}sulfanyl)pyridin-2-yl]oxy}acetate]: in data set [6], the “Zea mays (efficacy in %)” value came out at 20%. The “Oryza sativa (efficacy in %)” value in data set [7] (application rate 1.25 g/ha) was determined as 20%. The “Triticum aestivum (efficacy in %)” value in data set [8] came to 20%. The “Lolium rigidum (efficacy in %)” value in data set [9] is recorded as 80%. Further, the pest or weed control at 5 g/ha in data set [10] is 100%; in data set [11] it was 100%; in data set [12], 80%; in [13], 100%; in [14] it was 80%; in data set [15], 100%. Further, the pest or weed control at 5 g/ha came out at 100% in data set [16], 100% in [18], 80% in [19] and 100% in data set [21]. For the same compound, the pest or weed control at 20 g/ha in data set [10], in data set [11], in data set [12], in data set [13], in data set [14] and in data set [15] was 100% each time. The pest or weed control at 20 g/ha in data set [16], in data set [18], in [19] and in [21] was 100% in each case. For the same compound, in data set [17], the “Avena fatua (efficacy in %)” value is reported as 100%. The “Alopecurus myosuroides (efficacy in %)” value in data set [20] is on record as 90%.

Regarding `COC(=O)COc1ncccc1Sc1cc(-n2c(=O)cc(C(F)(F)F)n(N)c2=O)c(F)cc1Cl` [I.1-441, Methyl {[3-({5-[3-amino-2,6-dioxo-4-(trifluoromethyl)-3,6-dihydropyrimidin-1(2H)-yl]-2-chloro-4-fluorophenyl}sulfanyl)pyridin-2-yl]oxy}acetate], the “Zea mays (efficacy in %)” value in [6] is 20%. In addition, the “Oryza sativa (efficacy in %)” value in data set [7] (application rate 1.25 g/ha) was found to be 10%; in data set [7] (application rate 5 g/ha), 20%. Besides, the “Glycine max (efficacy in %)” value in data set [22] is on record as 20%. In addition, in [8], the “Triticum aestivum (efficacy in %)” value is on record as 20%. The “Lolium rigidum (efficacy in %)” value in [9] came to 80%. Also, the pest or weed control at 5 g/ha in data set [10] was determined as 100%; in [11], 100%; in [12], 80%; in data set [13] it was 90%; in [14] it was 100%; in [15], 80%. Besides, the pest or weed control at 5 g/ha in data set [16], in [18], in data set [19] and in [21] was 100% in each case. The pest or weed control at 20 g/ha in [10], in data set [11], in [12], in data set [13], in data set [14] and in data set [15] was 100% throughout. Moreover, the pest or weed control at 20 g/ha in data set [16], in [18], in data set [19] and in data set [21] was 100% throughout. The “Hordeum murinum (efficacy in %)” value in [23] (application rate 5 g/ha) was 80%; in data set [23] (application rate 20 g/ha), 100%. The “Stellaria media (efficacy in %)” value in data set [24] is 100%.

The record behind these values is US20220274954A1, “SUBSTITUTED N-PHENYL-N-AMINOUARCILS AND SALTS THEREOF AND USE THEREOF AS HERBICIDAL AGENTS” (Bayer Aktiengesellschaft, priority 2019, published 2022).
